Legend:
TYK2 [1] = biological target: T1, TYK2 (Homo sapiens, UniProt P29597); assay: TYK2 protein degradation in NOMO-1 cells by immunoblotting; format: cell-based; parameters: endogenous in cells; settings: NOMO-1 cells
Procedure: NOMO-1 cells were treated with CPD-155, CPD-157, and CPD-158 at 0.1, 1, 10, 100 and 1000 nM concentrations for 16 hours. […] Data shown that CPD-155, CPD-157, and CPD-158 are very potent at the reduction protein levels of TYK2.
MOLT-4 or NOMO-1 cells were cultured at 37° C. with 5% CO2 in RPMI 1640 Medium supplemented with 10% fetal bovine serum. Cells were authenticated using the short tandem repeat (STR) assays. Mycoplasma test results were negative.
Cultured cells were washed with cold PBS once and lysed in cold RIPA buffer supplemented with protease inhibitors and phosphatase inhibitors (Beyotime Biotechnology). The solutions were then incubated at 4° C. for 30 minutes with gentle agitation to fully lyse cells. Cell lysates were centrifuged at 13,000 rpm for 10 minutes at 4° C. and pellets were discarded. Total protein concentrations in the lysates were determined by BCA assays (Beyotime Biotechnology). Cell lysates were mixed with Laemmli loading buffer to 1× and heated at 99° C. for 5 min. Proteins were resolved on SDS-PAGE and visualized by chemiluminescence. Images were taken by a ChemiDoc MP Imaging system (Bio-Rad). Protein bands were quantitated using the accompanied software provided by Bio-Rad.

TYK2 [2] = biological target: T1, TYK2; assay: TYK2 protein degradation in MOLT-4 cells by immunoblotting; format: cell-based; parameters: endogenous in cells; host or cells: MOLT-4; settings: MOLT-4 cells, 24 hours
Outline: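 Percent TYK2 degradation came from densitometry of chemiluminescent immunoblots of RIPA lysates. Before lysis, MOLT-4 cells had been treated for 24 h with each compound at 0.5 or 5 μM.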

T1 sequence (P29597 whole entry): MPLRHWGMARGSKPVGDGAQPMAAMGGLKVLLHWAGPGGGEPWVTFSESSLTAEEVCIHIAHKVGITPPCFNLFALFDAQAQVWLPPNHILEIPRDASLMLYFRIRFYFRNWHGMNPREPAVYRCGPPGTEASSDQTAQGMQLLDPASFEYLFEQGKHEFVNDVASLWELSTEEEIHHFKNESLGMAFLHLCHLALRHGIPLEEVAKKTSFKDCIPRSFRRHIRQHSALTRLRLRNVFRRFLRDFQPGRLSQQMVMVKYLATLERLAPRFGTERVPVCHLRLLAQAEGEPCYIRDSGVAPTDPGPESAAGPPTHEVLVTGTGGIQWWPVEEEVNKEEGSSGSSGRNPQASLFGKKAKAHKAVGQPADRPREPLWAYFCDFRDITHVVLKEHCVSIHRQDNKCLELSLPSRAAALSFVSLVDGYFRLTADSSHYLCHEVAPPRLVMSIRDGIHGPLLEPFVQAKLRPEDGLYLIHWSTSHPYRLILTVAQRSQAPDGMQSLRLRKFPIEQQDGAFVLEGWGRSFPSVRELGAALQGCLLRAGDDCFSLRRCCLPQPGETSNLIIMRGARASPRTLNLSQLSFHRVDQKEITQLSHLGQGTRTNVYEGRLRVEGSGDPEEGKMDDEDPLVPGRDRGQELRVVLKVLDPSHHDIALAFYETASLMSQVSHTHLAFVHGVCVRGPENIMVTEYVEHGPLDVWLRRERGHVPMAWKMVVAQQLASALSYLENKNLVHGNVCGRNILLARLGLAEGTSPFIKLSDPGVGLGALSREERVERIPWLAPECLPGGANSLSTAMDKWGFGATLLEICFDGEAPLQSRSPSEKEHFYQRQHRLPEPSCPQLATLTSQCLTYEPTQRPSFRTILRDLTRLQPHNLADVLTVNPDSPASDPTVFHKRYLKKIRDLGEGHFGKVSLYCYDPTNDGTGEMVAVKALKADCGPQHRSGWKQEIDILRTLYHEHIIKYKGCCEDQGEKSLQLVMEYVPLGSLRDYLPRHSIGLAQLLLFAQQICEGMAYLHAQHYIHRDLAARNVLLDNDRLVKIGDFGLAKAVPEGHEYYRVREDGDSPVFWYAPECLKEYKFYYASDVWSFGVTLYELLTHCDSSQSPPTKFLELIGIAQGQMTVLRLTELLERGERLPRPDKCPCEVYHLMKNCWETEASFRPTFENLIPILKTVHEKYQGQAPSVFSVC

**Q.** Which results are given for `CNC(=O)c1nnc(Nc2ccc(N3CCN(C(=O)CCCCCCC(=O)N[C@H](C(=O)N4C[C@H](O)C[C@H]4C(=O)N[C@@H](C)c4ccccc4)C(C)(C)C)CC3)cn2)cc1Nc1cccc(-c2ncn(C)n2)c1OC` [CDD-169, 6-((5-(4-(8-(((S)-1-((2S,4R)-4-hydroxy-2-(((S)-1-phenylethyl)carbamoyl)pyrrolidin-1-yl)-3,3-dimethyl-1-oxobutan-2-yl)amino)-8-oxooctanoyl)piperazin-1-yl)pyridin-2-yl)amino)-4-((2-methoxy-3-(1-methyl-1H-1,2,4-triazol-3-yl)phenyl)amino)-N-methylpyridazine-3-carboxamide]?
**A.** TYK2 Degradation (NOMO-1, 10 nM) (TYK2 [1]): C (C: ≤20% TYK2 degradation); TYK2 Degradation (NOMO-1, 100 nM) (TYK2 [1]): C (C: ≤20% TYK2 degradation)

**Q.** For `CNC(=O)c1cnc(Nc2ccc(N3CCN(C(=O)CCCCCCC(=O)N[C@H](C(=O)N4C[C@H](O)C[C@H]4C(=O)N[C@@H](C)c4ccc(-c5scnc5C)cc4)C(C)(C)C)CC3)cn2)cc1Nc1ccccc1OC` [CDD-170, 6-((5-(4-(8-(((S)-1-((2S,4R)-4-hydroxy-2-(((S)-1-(4-(4-methylthiazol-5-yl)phenyl)ethyl)carbamoyl)pyrrolidin-1-yl)-3,3-dimethyl-1-oxobutan-2-yl)amino)-8-oxooctanoyl)piperazin-1-yl)pyridin-2-yl)amino)-4-((2-methoxyphenyl)amino)-N-methylnicotinamide], which “TYK2 Degradation (NOMO-1, 10 nM)” value (TYK2 [1]) is on record?
**A.** The value was “B (B: <60% TYK2 degradation, and >20% TYK2 degradation)”.

**Q.** And the “TYK2 Degradation (NOMO-1, 100 nM)” value (TYK2 [1])?
**A.** Its value is “A (A: ≥60% TYK2 degradation)”.

**Q.** What does the source list for `CNC(=O)c1nnc(Nc2ccc(N3CCN(C(=O)CCCCCCC(=O)N[C@H](C(=O)N4C[C@H](O)C[C@H]4C(=O)NCc4ccc(C#N)cn4)C(C)(C)C)CC3)cn2)cc1Nc1cccc(-c2ncn(C)n2)c1OC` [CDD-172, 6-((5-(4-(8-(((S)-1-((2S,4R)-2-(((5-cyanopyridin-2-yl)methyl)carbamoyl)-4-hydroxypyrrolidin-1-yl)-3,3-dimethyl-1-oxobutan-2-yl)amino)-8-oxooctanoyl)piperazin-1-yl)pyridin-2-yl)amino)-4-((2-methoxy-3-(1-methyl-1H-1,2,4-triazol-3-yl)phenyl)amino)-N-methylpyridazine-3-carboxamide]?
**A.** TYK2 Degradation (NOMO-1, 10 nM) (TYK2 [1]): C (C: ≤20% TYK2 degradation); TYK2 Degradation (NOMO-1, 100 nM) (TYK2 [1]): C (C: ≤20% TYK2 degradation)

**Q.** With `CNC(=O)c1nnc(Nc2ccc(N3CCN(C(=O)CCCCCCC(=O)N[C@H](C(=O)N4C[C@H](O)C[C@H]4C(=O)N[C@H]4CCCc5c4cc(C#N)n5C)C(C)(C)C)CC3)cn2)cc1Nc1cccc(-c2ncn(C)n2)c1OC` [CDD-173, 6-((5-(4-(8-(((S)-1-((2S,4R)-2-(((S)-2-cyano-1-methyl-4,5,6,7-tetrahydro-1H-indol-4-yl)carbamoyl)-4-hydroxypyrrolidin-1-yl)-3,3-dimethyl-1-oxobutan-2-yl)amino)-8-oxooctanoyl)piperazin-1-yl)pyridin-2-yl)amino)-4-((2-methoxy-3-(1-methyl-1H-1,2,4-triazol-3-yl)phenyl)amino)-N-methylpyridazine-3-carboxamide] as the molecule, how does the “TYK2 Degradation (NOMO-1, 10 nM)” value (TYK2 [1]) read?
**A.** Its value is “C (C: ≤20% TYK2 degradation)”.

**Q.** And the “TYK2 Degradation (NOMO-1, 100 nM)” value (TYK2 [1])?
**A.** Its value is “C (C: ≤20% TYK2 degradation)”.

**Q.** `CNC(=O)c1nnc(NC(=O)CNC(=O)CCCCCCCOc2cc(-c3scnc3C)ccc2CNC(=O)[C@@H]2C[C@@H](O)CN2C(=O)[C@@H](NC(=O)C2(F)CC2)C(C)(C)C)cc1Nc1cccc(-c2ncn(C)n2)c1OC` [CPD-107, 6-(2-(8-(2-(((2S,4R)-1-((S)-2-(1-Fluorocyclopropane-1-carboxamido)-3,3-dimethylbutanoyl)-4-hydroxypyrrolidine-2-carboxamido)methyl)-5-(4-methylthiazol-5-yl)phenoxy)octanamido)acetamido)-4-((2-methoxy-3-(1-methyl-1H-1,2,4-triazol-3-yl)phenyl)amino)-N-methylpyridazine-3-carboxamide] was tested. Which “TYK2 Degradation (MOLT-4, 0.5 μM)” value (TYK2 [2]) did it give?
**A.** The value was “C (C: ≤20% TYK2 degradation)”.

**Q.** What about the “TYK2 Degradation (MOLT-4, 5 μM)” value (TYK2 [2]) of the same molecule?
**A.** Its value is “C (C: ≤20% TYK2 degradation)”.

**Q.** Which “TYK2 Degradation (MOLT-4, 0.5 μM)” value (TYK2 [2]) does the source give for `CNC(=O)c1nnc(NC(=O)CNC(=O)CCCCCCCCOc2cc(-c3scnc3C)ccc2CNC(=O)[C@@H]2C[C@@H](O)CN2C(=O)[C@@H](NC(=O)C2(F)CC2)C(C)(C)C)cc1Nc1cccc(-c2ncn(C)n2)c1OC` [CPD-108, 6-(2-(9-(2-(((2S,4R)-1-((S)-2-(1-Fluorocyclopropane-1-carboxamido)-3,3-dimethylbutanoyl)-4-hydroxypyrrolidine-2-carboxamido)methyl)-5-(4-methylthiazol-5-yl)phenoxy)nonanamido)acetamido)-4-((2-methoxy-3-(1-methyl-1H-1,2,4-triazol-3-yl)phenyl)amino)-N-methylpyridazine-3-carboxamide] here?
**A.** The value was “C (C: ≤20% TYK2 degradation)”.

**Q.** And the “TYK2 Degradation (MOLT-4, 5 μM)” value (TYK2 [2])?
**A.** The value was “C (C: ≤20% TYK2 degradation)”.

**Q.** With `CNC(=O)c1nnc(NC(=O)CNC(=O)CCCCCCCCCOc2cc(-c3scnc3C)ccc2CNC(=O)[C@@H]2C[C@@H](O)CN2C(=O)[C@@H](NC(=O)C2(F)CC2)C(C)(C)C)cc1Nc1cccc(-c2ncn(C)n2)c1OC` [CPD-109, 6-(2-(10-(2-(((2S,4R)-1-((S)-2-(1-Fluorocyclopropane-1-carboxamido)-3,3-dimethylbutanoyl)-4-hydroxypyrrolidine-2-carboxamido)methyl)-5-(4-methylthiazol-5-yl)phenoxy)decanamido)acetamido)-4-((2-methoxy-3-(1-methyl-JH-1,2,4-triazol-3-yl)phenyl)amino)-N-methylpyridazine-3-carboxamide] as the molecule, how does the “TYK2 Degradation (MOLT-4, 0.5 μM)” value (TYK2 [2]) read?
**A.** The value was “B (B: <60% TYK2 degradation, and >20% TYK2 degradation)”.

**Q.** What about the “TYK2 Degradation (MOLT-4, 5 μM)” value (TYK2 [2]) of the same molecule?
**A.** Its value is “A (A: ≥60% TYK2 degradation)”.

**Q.** Which “TYK2 Degradation (MOLT-4, 0.5 μM)” value (TYK2 [2]) does the source give for `CNC(=O)c1nnc(NC(=O)CNC(=O)CCCCCCCCCCOc2cc(-c3scnc3C)ccc2CNC(=O)[C@@H]2C[C@@H](O)CN2C(=O)[C@@H](NC(=O)C2(F)CC2)C(C)(C)C)cc1Nc1cccc(-c2ncn(C)n2)c1OC` [CPD-110, 6-(2-(11-(2-(((2S,4R)-1-((S)-2-(1-fluorocyclopropane-1-carboxamido)-3,3-dimethylbutanoyl)-4-hydroxypyrrolidine-2-carboxamido)methyl)-5-(4-methylthiazol-5-yl)phenoxy)undecanamido)acetamido)-4-((2-methoxy-3-(1-methyl-1H-1,2,4-triazol-3-yl)phenyl)amino)-N-methylpyridazine-3-carboxamide] here?
**A.** The value was “A (A: ≥60% TYK2 degradation)”.

**Q.** What about the “TYK2 Degradation (MOLT-4, 5 μM)” value (TYK2 [2]) of the same molecule?
**A.** The value was “A (A: ≥60% TYK2 degradation)”.

**Q.** `CNC(=O)c1nnc(Nc2ccc(N3CCN(C(=O)CC(=O)N[C@H](C(=O)N4C[C@H](O)C[C@H]4C(=O)NCc4ccc(-c5scnc5C)cc4)C(C)(C)C)CC3)cn2)cc1Nc1cccc(-c2ncn(C)n2)c1OC` [CPD-111, 6-((5-(4-(3-(((S)-1-((2S,4R)-4-Hydroxy-2-((4-(4-methylthiazol-5-yl)benzyl)carbamoyl)pyrrolidin-1-yl)-3,3-dimethyl-1-oxobutan-2-yl)amino)-3-oxopropanoyl)piperazin-1-yl)pyridin-2-yl)amino)-4-((2-methoxy-3-(1-methyl-1H-1,2,4-triazol-3-yl)phenyl)amino)-N-methylpyridazine-3-carboxamide] was tested. Which “TYK2 Degradation (MOLT-4, 0.5 μM)” value (TYK2 [2]) did it give?
**A.** The value was “B (B: <60% TYK2 degradation, and >20% TYK2 degradation)”.

**Q.** And the “TYK2 Degradation (MOLT-4, 5 μM)” value (TYK2 [2])?
**A.** Its value is “B (B: <60% TYK2 degradation, and >20% TYK2 degradation)”.

Reference: patent US20240059671A1, “TYROSINE KINASE 2 (TYK2) DEGRADATION COMPOUNDS AND METHODS OF USE” (CULLGEN (SHANGHAI), INC., priority 2020, published 2024)
